Source: patent US8362203B2, “Non-natural peptides as models for the development of antibiotics” (priority 2009, dated 2013)
Entries after “also recorded” stand apart in the source; their conditions may differ. Marks after values point to notes of the source that are not given here. Strand notation (5' to 3'): a small letter for the sugar, then the base; units joined by * are phosphorothioate-linked, units joined directly phosphodiester-linked; [ ] holds rarer units or linkages, { } end groups; capitals alone tell only the bases. [m2G] = N2-methylguanosine (ribo); [5mC] = 5-methylcytosine; r = 2'-OH (RNA)

Assays:
[1] = UV thermal melting of helix 31 RNA hairpin constructs (van't Hoff analysis); assay type: physicochemical; conditions: for ΔG° 50: standard error est. 3% (±0.2 kcal/mol)
Method: Thermal melting studies. The absorbance versus temperature profiles were obtained on an Aviv 14DS UV-vis spectrophotometer with a five-cuvette thermoelectric controller. Microcuvettes with two different pathlengths, 0.1 and 0.2 cm (60 and 120 μL volumes, respectively), were employed. Each set of measurements was done in triplicate. The buffer used in each experiment contained 15 mM NaCl, 20 mM sodium cacodylate, and 0.5 mM Na2EDTA (pH 7.0) unless otherwise noted. Each oligomer was dissolved in a specific volume to yield an absorbance reading just below 2.0 in a 0.1 cm pathlength cuvette. The RNA concentrations were determined from the absorbance values (260 nm) at 95° C. The absorbance data were collected at […] from 0 to 95° C. with a constant heating rate of 0.5° C./min. Thermodynamic parameters were obtained from the absorbance versus temperature profiles using the MELTWIN v. 3.5 melting curve program.^1 This program performs a van't Hoff analysis, assuming a two-state model for the transition between a native and a denatured (random coil) structure of a hairpin.
Absorbance versus temperature profiles (melting curves) were obtained at pH 7.0 for all four RNA constructs. They were analyzed in terms of ΔG°37, ΔG°50, ΔH°, ΔS°, and melting temperature (Tm),^1, 2 Representative normalized UV melting curves of the modified RNAs compared to the unmodified RNA, taken in 15 mM NaCl, 20 mM sodium cacodylate, 0.5 mM Na2EDTA (pH 7.0), are shown in FIG. 11.
The curves represent an average of five sets of data at different concentrations of RNA obtained from a five-cuvette thermoelectric controller. The melting curves for the unmodified RNA (ECh31UNMOD, blue line in panels A-C) are compared to those for the modified RNAs (pink lines: (A) ECh31WT, (B) ECh31M2G, and (C) ECh31M5C). All of the melting curves were normalized at 95° C. and absorbance measurements were taken at 260 nm (see materials and methods, section 4.5).
The melting curves are biphasic for all four RNAs (FIG. 12) with transitions at 0 to 35° C. and 40 to 80° C. […] The higher melting transitions were concentration independent, consistent with unimolecular unfolding of the hairpin structure.^3 The corresponding thermodynamic parameters for the four RNAs are given in Table 2. […] The observed order of stability of the RNAs is ECh31UNMOD>ECh31M2G>ECh31M5C>ECh31WT^a A conservative estimate of the standard error for ΔG°50 is 3% (.+−.0.2 kcal/mol)^4
The RNA samples were analyzed as five different dilutions per experiment and UV melts were also performed in triplicate for each construct. AU0-AU4 represent profiles corresponding to different dilutions of each RNA taken in 15 mM NaCl, 20 mM sodium cacodylate, 0.5 mM Na2EDTA at pH 7.0. Experiments in K^+ buffer (15 mM KCl, 20 mM cacodylic acid, 20 mM Tris [basic form], 0.5 mM Na2EDTA, pH 7.0) gave similar results (Table 3, FIG. 13).
Thermal melting studies. Preliminary experiments were performed with the unmodified human analogue (HSh31UNMOD) containing an additional G-C base-pair (denoted by g-c) similar to that of the ECh31UNMOD construct (FIG. 28).
Thermal melting studies on the human unmodified helix 31 containing the altered sequence. The absorbance versus temperature profiles were obtained at pH 7.0 in low salt conditions (35 mM Na^+) for the new analogue of helix 31 (HSh31ECstem) and analyzed in terms of the melting temperature (Tm), Δ°, ΔS° and ΔG°37. The melting curve for HSH31ECSTEM (green color curve) is biphasic with transitions at 0-35 and 45-80° C. (FIG. 37). The higher melting transition is concentration independent, consistent with unimolecular unfolding of a hairpin structure.

[2] = test system: GFP translation (Escherichia coli S30 extracts); experiment: Coupled in vitro transcription-translation inhibition assay (GFP fluorescence); assay type: biochemical; conditions: for inhibitory effect on coupled in vitro transcription-translation (in words): peptide 300 μM to 2 mM, GFP fluorescence 0 min to 2 h, 37° C.
Method: Peptides with high frequency in the screening against wild-type h31 were synthesized. The peptides (DIRTQRE (SEQ ID NO: 6), CVRPFAL (SEQ ID NO: 4), FVRPFAL (SEQ ID NO: 7), TLWDLIP (SEQ ID NO: 3) and TYLPWPA (SEQ ID NO: 2)), were synthesized and their sequences were determined from the phage display experiments. The inhibitory effects of these peptides on cellular processes were determined by in vitro coupled transcription-translation inhibition assay. The PURExpress™ in vitro protein synthesis kit # E6800S from New England Biolabs (NEB) was used for this purpose. This kit contains all of the necessary components for the transcription and translation, except for the DNA template. The amounts of reagents from the kit were added according to the NEB manual. We used a DNA template for GFP (pRSETEmGFP plasmid) at a concentration of 10 μg/ml in a 15 μl of reaction volume. Different concentrations of peptides were added, ranging from 300 μM to 2 mM. The DNA template was added only after mixing of the peptides or streptomycin so that they can bind to their target region. For the control, streptomycin was added at a final concentration of 300 μM. The reaction was incubated in 384-well, Costar, clear-well, black plates and in situ incubated at 37° C. in the fluorometer. The amount of GFP translation was monitored at different intervals of time from 0 min to 2 h by fluorescence (excitation at 487 nm, emission at 509 nm) using a Gemini XPS microplate spectrofluorometer, (Molecular Devices).
A cell-free translation assay was used to test the inhibitory effects of the peptides on protein synthesis. The pRSETEmGFP plasmid that was used as template has an EmGFP gene under control of the T7 promoter (FIG. 48). Upon transcription with T7 polymerase, EmGFP mRNA was formed and undergoes translation by ribosomes to produce the green fluorescent protein (GFP). The degree of inhibition on transcription and translation due to the presence of peptide could be determined by measuring the level of GFP fluorescence. Escherichia coli S30 extracts were used, which contained all of the necessary factors and supplements for translation. The rate of GFP translation in the presence or absence of peptide was measured at different time intervals.

[3] = 15 mM NaCl, 20 mM sodium cacodylate, 0.5 mM Na2EDTA, pH 7.0
[4] = Table 2, 15 mM NaCl, 20 mM sodium cacodylate, 0.5 mM Na2EDTA, pH 7.0
[5] = Tables 3-5, NaCl buffer (15 mM NaCl, 20 mM sodium cacodylate, 0.5 mM EDTA, pH 7.0)
[6] = KCl buffer (15 mM KCl, 20 mM cacodylic acid, 20 mM Tris, 0.5 mM Na2EDTA, pH 7.0)

| Compound | ΔG° 50 [1, 3] | Tm [1, 4] [°C] | ΔG°37 [1, 4] [kJ/mol] | ΔH° [1, 4] [kJ/mol] | ΔS° [1, 4] [cal/K · mol] | Tm [1, 5] [°C] | ΔG°37 [1, 5] [kJ/mol] | ΔH° [1, 5] [kJ/mol] | ΔS° [1, 5] [cal/K · mol] | inhibitory effect on coupled in vitro transcription-translation (in words) [2] | other results |
| --- | --- | --- | --- | --- | --- | --- | --- | --- | --- | --- | --- |
| ECh31UNMOD: 18-nt unmodified RNA hairpin representing helix 31 (U960-A975) of E. coli 16S rRNA (GUUCGAUGCAACGCGAAC; unmodified RNA) | −0.9^a kcal/mol | 57 | -10.9 ± 0.42 | -185 ± 4.18 | −133.8 ± 3.0 | 57 | -10.9 ± 0.42 | -185 ± 4.18 | −133.8 ± 3.0 |  |  |
| TLWDLIP [compound 14, 7-mer peptide selected by phage display against helix 31 RNA] |  |  |  |  |  |  |  |  |  | greater inhibitory effects on in vitro protein synthesis than other peptides |  |
| HSh31UNMOD: unmodified human helix 31 RNA analogue with additional G-C base-pair (GUUUGACUCAACACGGGC; unmodified RNA) |  |  |  |  |  | 44 | -2.5 | -123 ± 6.69 | −92.8 ± 5.4 |  |  |
| [H]/N=C(/N)N[C@H]1[C@H](O)[C@@H](O)[C@H](O[C@@H]2O[C@@H](C)[C@](O)(C=O)[C@H]2O[C@@H]2O[C@@H](CO)[C@H](O)[C@@H](O)[C@@H]2NC)[C@@H](N/C(N)=N\[H])[C@@H]1O [Streptomycin, reference compound] |  |  |  |  |  |  |  |  |  |  | GFP translation with positive control ([2]; 300 μM): no GFP translation was observed |
| ECh31M5C: 18-nt helix 31 RNA hairpin of E. coli 16S rRNA with m5C967 (GUUCGAUGCAACGCGAAC; RNA, [5mC] at 9, all phosphodiester, methylation of C not given here) | −0.6^a kcal/mol | 55 | -9.2 ± 0.42 | -169 ± 3.8 | −123.3 ± 3.1 |  |  |  |  |  |  |
| CVRPFAL [compound 15, 7-mer peptide selected by phage display against helix 31 RNA] |  |  |  |  |  |  |  |  |  | greater inhibitory effects on in vitro protein synthesis than other peptides | inhibitory effect on coupled in vitro transcription-translation (in words) ([2]; listed as CVRPFAL): best inhibitory effects; also recorded: strong inhibitory effects |
| ECh31M2G: 18-nt helix 31 RNA hairpin of E. coli 16S rRNA with m2G966 (rGrUrUrCrGrArUr[m2G]rCrArArCrGrCrGrArArC) | −0.7^a kcal/mol | 56 | -10 ± 0.42 | -175 ± 4.6 | −127.5 ± 3.2 |  |  |  |  |  |  |
| ECh31WT: doubly modified (m2G966, m5C967) h31 analogue, wild-type sequence of E. coli 16S rRNA helix 31 (GUUCGAUGCAACGCGAAC; RNA, [m2G] at 8, [5mC] at 9, all phosphodiester, methylation of C not given here) | −0.5^a kcal/mol | 56 | -8.79 ± 0.42 | -157 ± 9.2 | −114.4 ± 5.8 | 55.5 | -8.79 ± 0.29 | -155.9 ± 5.02 | −113.37 ± 3.6 |  | Tm [1, 6]: 54.7 °C; ΔG°37 [1, 6]: -8.91 ± 0.13 kJ/mol; ΔH° [1, 6]: -164.7 ± 5.02 kJ/mol; ΔS° [1, 6]: −120.08 ± 3.8 cal/K · mol |
| DIRTQRE [compound 18, 7-mer peptide selected by phage display against helix 31 RNA] |  |  |  |  |  |  |  |  |  | did not inhibit transcription or translation even up to 2 mM; also recorded: least inhibitory effect |  |
| FVRPFAL [compound 16, 7-mer peptide selected by phage display against helix 31 RNA] |  |  |  |  |  |  |  |  |  | best inhibitory effects; also recorded: strong inhibitory effects |  |
